Measurements as given in US11052092B2, “N-{[2-(piperidin-1-yl)phenyl](phenyl)methyl}-2-(3-oxo-3,4-dihydro-2H-1,4-benzoxazin-7-yl)acetamide derivatives and related compounds as ROR-gamma modulators for treating autoimmune diseases” (Genfit, priority 2017, dated 2021).

Legend:
human RORγt = target: T1, human RORγt (Homo sapiens, UniProt P51449); assay: RORE Luciferase/RORγt transactivation assay; format: cell-based; conditions: COS-7 cells transfected with human IL-17 promoter luciferase reporter and RORγt plasmid; 20 h with compound; read-out: IC50, RORγt activity inhibition
T1 construct: the full-length cDNA of human RORγt; expressed in transfected cells; host or cells: COS-7 (monkey kidney)
T1 sequence (P51449 1-497 isoform P51449-2): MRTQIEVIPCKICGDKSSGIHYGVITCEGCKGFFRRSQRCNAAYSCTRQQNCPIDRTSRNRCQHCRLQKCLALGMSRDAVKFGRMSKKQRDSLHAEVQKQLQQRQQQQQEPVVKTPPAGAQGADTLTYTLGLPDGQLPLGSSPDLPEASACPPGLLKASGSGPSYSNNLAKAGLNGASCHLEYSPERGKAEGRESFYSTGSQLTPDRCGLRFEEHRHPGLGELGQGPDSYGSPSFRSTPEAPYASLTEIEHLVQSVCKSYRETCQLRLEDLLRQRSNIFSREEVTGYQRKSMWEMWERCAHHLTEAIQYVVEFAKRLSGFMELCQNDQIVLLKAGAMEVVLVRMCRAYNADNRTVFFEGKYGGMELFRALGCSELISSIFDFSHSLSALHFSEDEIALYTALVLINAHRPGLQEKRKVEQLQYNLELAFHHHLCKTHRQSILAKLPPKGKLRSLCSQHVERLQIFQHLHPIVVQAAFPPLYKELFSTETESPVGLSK
Summary of the method: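 Transactivation read-out: luminescence (Steady-Glo, 30 min at room temperature) from COS-7 cells carrying a RORγt expression plasmid plus a 4.3 kb IL-17 promoter luciferase reporter. Compound exposure was in serum-free DMEM with 0.3% DMSO final. Reported values are IC50 (μM) and Emax (%).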

[1] = tested on: Murine EL-4 lymphoma cell line overexpressing human RORγt; assay: IL-17 secretion from EL4 murine lymphoma; format: cell-based; conditions: Mus musculus; human RORγt-transfected EL4 cells, PMA (10 ng/mL) and ionomycin (1 μM), 24 h; read-out: IC50, IL-17 secretion inhibition
Experimental: Murine EL-4 lymphoma cell line overexpressing human RORγt was used in this functional assay to assess compound ability to inhibit IL-17 cytokine secretion.
EL-4 cells are maintained in a standard culture medium RPMI supplemented with 10% fetal calf serum, 1% sodium pyruvate, 1% essential amino acids and 1% antibiotics at 37° C. in a humidified atmosphere of 5% CO02 and 95% air. Culture medium was changed every 2 days. EL4 cells were transfected with a plasmid encoding hRORγt (sequence identical to published sequence NM 001001523). […] Briefly, 1 μg of DNA/1 million cells was served to transfect EL-4 cells. Cell/DNA suspension was transferred into certified cuvette and the electroporation of RORγt plasmid was carried out using appropriate Nucleofector® program.
Cells were seeded in 96 well plates at a density of 150000 cells/I well then treated with compounds of this invention at indicated concentrations and incubated for 24 hours at 37° C. in a humidified atmosphere of 5% C02 and 95% air. EL-4 cells were pretreated with test compounds (RORγ modulators) and stimulated with PMA (10 ng/mL) and ionomycin (1 μM final concentration) in the presence of test compound concentrations for additional 24 h at 37° C. in a humidified atmosphere of 5% C02 and 95% air. Subsequently, supernatants were collected (after centrifugation at 300 g for 10 minutes) to determine the concentrations of IL-17 by HTRF (CisBio, France) or ELISA (R&D Systems Europe) according to the manufacturer's protocols.

IC50 (human RORγt) | IC50 [1] | melting point | SMILES
< 10 nM | < 100 nM | 112 °C | Cc1ccc(C(NC(=O)C2(c3ccc4[nH]cc(CO)c4c3)CC2)c2ccc(C)o2)c(N2CCCCC2)c1 (centres unmarked) [Cpd. 89, 1-[3-(hydroxymethyl)-1H-indol-5-yl]-N-{[4-methyl-2-(piperidin-1-yl)phenyl](5-methylfuran-2-yl)methyl}cyclopropane-1-carboxamide]
10 to 100 nM | 100 to 1000 nM | 112 °C | Cc1ccc(C(NC(=O)Cc2ccc3c(c2)C(C)(O)C(=O)N3)c2ccc(C)o2)c(N2CCCCC2)c1 (centres unmarked) [Cpd. 47, 2-(3-hydroxy-3-methyl-2-oxo-2,3-dihydro-1H-indol-5-yl)-N-{[4-methyl-2-(piperidin-1-yl)phenyl](5-methylfuran-2-yl)methyl}acetamide]
10 to 100 nM | < 100 nM | 88 °C | Cc1ccc(C(NC(=O)Cc2ccc3c(ccn3C(=O)N3CCOCC3)c2)c2ccc(C)o2)c(N2CCCCC2)c1 (centres unmarked) [Cpd. 116, N-{[4-methyl-2-(piperidin-1-yl)phenyl](5-methylfuran-2-yl)methyl}-2-[1-(morpholine-4-carbonyl)-1H-indol-5-yl]acetamide]
10 to 100 nM | 100 to 1000 nM | 80 °C | COc1ccc(C(NC(=O)Cc2ccc3c(ccn3CCC(=O)O)c2)c2ccc(C)o2)c(N2CCCCCC2)c1 (centres unmarked) [Cpd. 111, 3-{5-[({[2-(azepan-1-yl)-4-methoxyphenyl](5-methylfuran-2-yl)methyl}carbamoyl)methyl]-1H-indol-1-yl}propanoic acid]
10 to 100 nM | 100 to 1000 nM | – | Cc1ccc(C(NC(=O)Cc2ccc3c(c2)CC(=O)N3C)c2ccc(C)o2)c(N2CCCCC2)c1 (centres unmarked) [Cpd. 38, N-{[4-methyl-2-(piperidin-1-yl)phenyl](5-methylfuran-2-yl)methyl}-2-(1-methyl-2-oxo-2,3-dihydro-1H-indol-5-yl)acetamide]

Continued, molecule first:

SMILES | IC50 (human RORγt) | IC50 [1] | melting point
Cc1ccc(C(NC(=O)Cc2ccc3c(C(=O)CS(C)(=O)=O)c[nH]c3c2)c2ccc(C)o2)c(N2CCCCC2)c1 (centres unmarked) [Cpd. 117, 2-[3-(2-methanesulfonylacetyl)-1H-indol-6-yl]-N-{[4-methyl-2-(piperidin-1-yl)phenyl](5-methylfuran-2-yl)methyl}acetamide] | 10 to 100 nM | 100 to 1000 nM | 85 °C
Cc1ccc(C(NC(=O)Cc2ccc3c(ccn3CCC(=O)O)c2)c2ccc(C)o2)c(N2CCCCC2)c1 (centres unmarked) [Cpd. 97, 3-{5-[({[4-methyl-2-(piperidin-1-yl)phenyl](5-methylfuran-2-yl)methyl}carbamoyl)methyl]-1H-indol-1-yl}propanoic acid] | 10 to 100 nM | 100 to 1000 nM | 95 °C
Cc1ccc(C(NC(=O)Cc2ccc3c(CO)c[nH]c3c2)c2ccc(C)o2)c(N2CCCCC2)c1 (centres unmarked) [Cpd. 88, 2-[3-(hydroxymethyl)-1H-indol-6-yl]-N-{[4-methyl-2-(piperidin-1-yl)phenyl](5-methylfuran-2-yl)methyl}acetamide] | 10 to 100 nM | < 100 nM | 92 °C
Cc1ccc(C(NC(=O)Cc2ccc3[nH]c(C)nc3c2)c2ccccc2)c(N2CCCCC2)c1 (centres unmarked) [Cpd. 75, 2-(2-methyl-1H-1,3-benzodiazol-5-yl)-N-{[4-methyl-2-(piperidin-1-yl)phenyl](phenyl)methyl}acetamide] | 10 to 100 nM | 100 to 1000 nM | 137 °C
Cc1ccc(C(NC(=O)Cc2ccc3[nH]cc(CN4CCOCC4)c3c2)c2ccc(C)o2)c(N2CCCCC2)c1 (centres unmarked) [Cpd. 94, N-{[4-methyl-2-(piperidin-1-yl)phenyl](5-methylfuran-2-yl)methyl}-2-[3-(morpholin-4-ylmethyl)-1H-indol-5-yl]acetamide] | 10 to 100 nM | < 100 nM | 100 °C
